# Reference: US4760053A, “Combination therapy for selected sex steroid dependent cancers” (priority 1985, dated 1988)
# Tests used:
# [1] = test system: advanced breast cancer; details: cited from earlier work
# [2] = test system: serum testosterone; test: LHRH agonist-induced serum testosterone in the dog; assay type: in vivo; details: dogs; for prevention of the rise in serum testosterone during the first days of treatment with the peptide: given per os three times daily together with 50 μg LHRH-A daily (aminoglutethimide group plus hydrocortisone)
# Protocol: Eighteen mongrel dogs weighing between 20-30 kg were randomly divided into three groups. The animals were housed one per cage and fed Purina Dog Chow and tap water ad libitum.
# The animals of group 1 were injected daily (at 0700 h) with 50 μg of the LHRH agonist [D-Trp^6, des-Gly-NH2^10 ]LHRH ethylamide (LHRH-A). In group 2, the animals were also injected daily with 50 μg of LHRH-A and took in addition 200 mg of ketoconazole per os at 0700 h, 1500 h and 2300 h. The animals of group 3 received daily 50 μg of LHRH-A and 125 mg of aminoglutethimide per os at 0700 h, 1500 h, 2300 h plus 10 mg of hydrocortisone twice daily.
# Blood samples were collected at 0700 h, 0900 h, 1100 h and 1500 h one day before treatment and every day during the treatment. Plasma was extracted with diethyl ether and testosterone was separated on LH-20 columns before RIA measurements.
# [3] = test system: testosterone levels; details: rodents, in combination with chronic administration of Leuprolide; cited from earlier work
# [4] = test system: MCF7 human breast tumor cells; details: inhibitory activity antagonized by estradiol; cited from earlier work
smiles,measurement,setting,value
"CC/C(=C(\c1ccccc1)c1ccc(OCCN(C)C)cc1)c1ccccc1 [Tamoxifen, (Z)-2-[4-(1,2-diphenyl-1-butenyl)phenoxy]-N,N-dimethylethanamine]","remission of advanced breast cancer, share of patients treated",[1]; Tamoxifen alone,about 30%
same,objective remission of breast cancer,[1]; combined use with the LH-RH agonist Buserelin,35%
"CCNC(=O)[C@@H]1CCCN1C(=O)[C@H](CCCNC(=N)N)NC(=O)[C@H](CC(C)C)NC(=O)[C@@H](Cc1c[nH]c2ccccc12)NC(=O)[C@H](Cc1ccc(O)cc1)NC(=O)[C@H](CO)NC(=O)[C@H](Cc1c[nH]c2ccccc12)NC(=O)[C@H](Cc1c[nH]cn1)NC(=O)[C@@H]1CCC(=O)N1 [[D-Trp^6 des-Gly-NH2^10]LHRH ethylamide, [D-Trp^6, des-Gly-NH2^10]LHRH ethylamide]",level of serum testosterone on day 19,"[2]; daily injection of 50 μg, day 19",near-castration levels
same,increase in serum testosterone,"[2]; daily injection of 50 μg, one to six days after start of treatment",approximately 500 % above control
"CCC1(c2ccc(N)cc2)CCC(=O)NC1=O (centres unmarked) [aminoglutethimide, 3-(4-aminophenyl)-3-ethyl-2,6-piperidinedione]",prevention of the rise in serum testosterone during the first days of treatment with the peptide,[2],almost completely prevented
CC(=O)N1CCN(c2ccc(OCC3COC(Cn4ccnc4)(c4ccc(Cl)cc4Cl)O3)cc2)CC1 (centres unmarked) [ketoconazole],prevention of the rise in serum testosterone during the first days of treatment with the peptide,[2],almost completely prevented
same,basal and Leuprolide stimulated testosterone levels,[3],decreased
"CC[C@H](c1cccc(O)c1)[C@@H](CC)c1cccc(O)c1 [meso-3,4-bis(3'-hydroxyphenyl)hexane]",inhibition of MCF7 human breast tumor cells,[4],inhibits
